Experimental findings from patent US7671028B2, “Peptides that antagonize FPR class receptor mediated signaling” (POSTECH Foundation, priority 2004, dated 2010) are described below.

Where a SMILES comes first, the peptide text is derived from it. Where no end group is shown, it is not given here. [ ]: non-standard residue; d: D form.

For the first experiment, the system named is human neutrophils. The experiment can be described thus: Superoxide generation in human neutrophils (cytochrome c reduction). It is filed as cell-based. The conditions noted are these: agonist alone, concentration-dependent. The protocol: FIGS. 7A-7D show effects of WRW^4 (SEQ ID NO:4) on the Aβ42-induced superoxide generation and chemotaxis in human neutrophils. […] Cytochrome c reduction was monitored, as described in EXAMPLES. The results shown are representative of four independent experiments (A, B). Chemotaxis assays were performed using a modified Boyden chamber assay, as described in EXAMPLES. […] The data are presented as mean±SE of three independent experiments each performed in duplicate (C, D).
Superoxide anion generation was determined by measuring cytochrome c reduction using a microtiter 96 well plate ELISA reader (Bio-Tekinstruments, EL312e, Winooski, Vt.) as previously described (23). Human neutrophils (1×10^6 cells/100 μl of RPMI 1640 medium per well of a 96-well plate) were preincubated with 50 μM cytochrome c at 37° C. for 1 min and then incubated with the indicated concentrations of peptides. Superoxide generation was determined for the change in light absorption at 550 nm over 5 minutes at 1 min intervals.
Superoxide generation is one of the important functions of phagocytic leukocytes like neutrophils (28).
Consider “Aβ42: amyloid β42 peptide, cleavage fragment of amyloid precursor protein, endogenous ligand for FPRL1”, for which the “peptide concentration of maximal superoxide generating effect” value was found to be 40 µM.

A further experiment addresses T1, FPRL1 (Homo sapiens, UniProt P25090).
T1 construct: expressed in transfected cells; host or cells: RBL-2H3 (rat basophilic leukaemia) cells
T1 sequence (P25090 1-351): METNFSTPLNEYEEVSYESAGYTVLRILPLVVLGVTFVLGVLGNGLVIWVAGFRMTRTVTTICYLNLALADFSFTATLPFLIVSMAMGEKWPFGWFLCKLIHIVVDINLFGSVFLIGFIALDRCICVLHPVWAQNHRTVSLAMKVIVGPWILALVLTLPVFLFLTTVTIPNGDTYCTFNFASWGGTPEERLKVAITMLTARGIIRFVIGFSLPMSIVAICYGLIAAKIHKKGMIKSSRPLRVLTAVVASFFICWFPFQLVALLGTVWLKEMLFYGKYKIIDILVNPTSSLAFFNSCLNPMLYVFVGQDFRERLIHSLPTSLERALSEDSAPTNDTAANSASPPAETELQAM
The experiment is described as follows: WKYMVm-induced [Ca2+]i increase in FPRL1-expressing RBL-2H3 cells (fura-2). It counts as cell-based. The conditions noted are these: inhibition of FPRL1 agonist-induced intracellular calcium increase; peptide added before agonist. How it is done: FIGS. 3A-3B show effects of WRW^4 (SEQ ID NO:4) on the WKYMVm (SEQ ID NO:3)-induced [Ca^2+]i rise in FPRL1 expressing RBL-2H3 cells. Fura-2-loaded FPRL1-expressing RBL-2H3 cells were stimulated with vehicle or WRW^4 (SEQ ID NO:4) (10 μM) and then with WKYMVm (SEQ ID NO:3) (10 nM); or FPRL1-expressing RBL-2H3 cells were sensitized with DNP-specific IgE, loaded with fura-2, and activated with the antigen DNP-HSA (1 μg/ml). The changes in 340 nm/380 nm were monitored. The results are representative of three independent experiments (A). Cells were stimulated with various concentrations of WRW^4 (SEQ ID NO:4) prior to adding 10 nM of WKYMVm (SEQ ID NO:3) or 1 μg/ml of DNP-HSA. Peak levels of [Ca^2+]i increase were monitored. The results shown are the means±SE of four independent experiments (B).
Intracellular calcium concentration ([Ca^2+]i) levels were determined by Grynkiewicz's method using fura-2/AM (25). Briefly, prepared cells were incubated with 3 μM fura-2/AM at 37° C. for 50 min in fresh serum free RPMI 1640 medium with continuous stirring. For DNP-HSA stimulation, RBL-2H3 cells were sensitized with 1 μg/ml mouse DNP-specific IgE overnight prior to fura-2 loading (26), and 2×10^6 cells were aliquoted for each assay in Ca^2+ free Locke's solution (154 mM NaCl, 5.6 mM KCl, 1.2 mM MgCl2, 5 mM HEPES, pH 7.3, 10 mM glucose, and 0.2 mM EGTA). The fluorescence changes at excitation wavelengths of 340 nm and 380 nm and a common emission wavelength of 500 nm were measured, and the calibrated fluorescence ratio was converted to [Ca^2+]i.
The stimulation of FPRL1 by WKYMVm (SEQ ID NO:3) elicited a [Ca^2+]i increase in FPRL1-expressing RBL-2H3 cells (FIG. 3A). To investigate whether the inventive peptides inhibited WKYMVm (SEQ ID NO:3)-induced [Ca^2+]i increase, we stimulated fura-2 loaded FPRL1-expressing RBL-2H3 cells with various concentrations of WRW^4 (SEQ ID NO:4), and subsequently stimulated with effective concentration of WKYMVm (SEQ ID NO:3). […] To confirm specific inhibition by WRW^4 (SEQ ID NO:4) on FPRL1-induced signaling, we examined the effect of WRW^4 (SEQ ID NO:4) on another extracellular signal-induced [Ca^2+]i increase. FcεRI cross-linking has been reported to induce a [Ca^2+]i increase in RBL-2H3 cells (26). Stimulation of FPRL1-expressing RBL-2H3 cells (sensitized with 1 μg/ml mouse DNP-specific IgE) with 1 μg/ml DNP-HSA caused a dramatic increase in [Ca^2+]i (FIG. 3A).
Methods and principles of assaying for the effects of a set of diverse peptides on the intracellular concentration of calcium when the peptides are contacted with the cells bearing FPRL1 before the FPRL1 agonist is added is described in Example 1.5 above, and further details of initial experimentation using the peptides is described in Example 2.2.
A general note: Calcium assays in cells follow changes in intracellular calcium, usually with a dye or a luminescent sensor.
The term IC50 denotes the midpoint of a concentration-inhibition curve. As for `N=C(N)NCCC[C@H](NC(=O)[C@@H](N)Cc1c[nH]c2ccccc12)C(=O)N[C@@H](Cc1c[nH]c2ccccc12)C(N)=O` [SEQ ID NO:7] (H-Trp-Arg-Trp-NH2), the IC50 is greater than 10 µM.
Still for that read-out and setting: as for `NC(=O)[C@@H](Cc1c[nH]c2ccccc12)NC(=O)[C@H](Cc1c[nH]c2ccccc12)NC(=O)[C@H](Cc1c[nH]c2ccccc12)NC(=O)[C@H](Cc1c[nH]c2ccccc12)NC(=O)[C@H](Cc1c[nH]c2ccccc12)NC(=O)[C@@H](N)Cc1c[nH]c2ccccc12` [SEQ ID NO:32] (H-WWWWW[dW]-NH2), the figure is greater than 10 µM; as for `N=C(N)NCCC[C@H](NC(=O)[C@@H](N)Cc1c[nH]c2ccccc12)C(=O)N[C@@H](Cc1c[nH]c2ccccc12)C(=O)N[C@@H](Cc1c[nH]c2ccccc12)C(N)=O` [SEQ ID NO:34] (H-WRWW-NH2), greater than 10 µM.
As to `NC(=O)[C@@H](Cc1c[nH]c2ccccc12)NC(=O)[C@H](Cc1c[nH]c2ccccc12)NC(=O)[C@H](Cc1c[nH]c2ccccc12)NC(=O)[C@@H](N)Cc1c[nH]c2ccccc12` [SEQ ID NO:35] (H-WWW[dW]-NH2), the IC50 was greater than 10 µM.
As to `N=C(N)NCCC[C@H](N)C(=O)N[C@@H](Cc1c[nH]c2ccccc12)C(=O)N[C@@H](Cc1c[nH]c2ccccc12)C(=O)N[C@H](Cc1c[nH]c2ccccc12)C(N)=O` [SEQ ID NO:36] (H-RWW[dW]-NH2), the IC50 is greater than 10 µM.
For `CSCC[C@H](NC(=O)[C@H](Cc1c[nH]c2ccccc12)NC(=O)[C@H](Cc1c[nH]c2ccccc12)NC(=O)[C@H](CCCNC(=N)N)NC(=O)[C@H](Cc1c[nH]c2ccccc12)NC(=O)[C@H](N)Cc1c[nH]c2ccccc12)C(N)=O` [wWRWWM] (H-[dW]WRWWM-NH2), the IC50 worked out at 0.0082 ± 0.0006 µM.
Same read-out and setting: the result for “H-WRWWWW-NH2 [SEQ ID NO:4, Trp-Arg-Trp-Trp-Trp-Trp-CONH2]” reads 1 ± 0.21 µM; that for WRRWWW-NH2 [SEQ ID NO:33], greater than 10 µM.
Still for that read-out and setting: the result for WWWWWW-NH2 [SEQ ID NO:31] reads greater than 10 µM.
